Experimental findings from patent US20210284668A1, “GOLD (I)-PHOSPHINE 1,2,3-TRIAZOLE DERIVATIVES WITH ANTIBIOTIC PROPERTIES” (Centre National de la Recherche Scientifique, priority 2018, published 2021) are described below.

The test system of one assay is S. aureus ST20131365. Nature of the assay: MIC by microdilution, S. aureus ST20131365. In kind it is cell-based, Staphylococcus aureus. The following applies: S. aureus ST20131365 (MecA positive, glycopeptide resistant), in duplicate. Here is the method:
(§1) The antibacterial profile of each derivative was evaluated by the standard microdilution method for susceptibility testing on 16 different strains, following the guidelines of CLSI. The selected panel included: • S. aureus ATCC25923 (MecA negative, wild-type) • S. aureus ATCC29213 (MecA negative, wild-type) • S. aureus ATCC700699 (MecA positive, glycopeptide resistant) • S. aureus ST20131365 (MecA positive, glycopeptide resistant) • S. epidermidis ATCC14990 (MecA negative, wild-type) • S. epidermidis ATCC35984 (MecA positive) • S. epidermidis ST20140436 (MecA positive, glycopeptide resistant) • S. epidermidis ST20150446 (MecA positive, glycopeptide resistant) • E. faecalis JH2-2 (wild-type) • E. faecalis UCN41 (VanA positive, glycopeptide resistant) • E. faecalis V583 (VanB positive, glycopeptide resistant) • E. faecium ATCC19434T (wild-type) • E. faecium BM4147 (VanA positive, glycopeptide resistant) • E. faecium AUS0004 (VanB positive, glycopeptide resistant) • E. coli ATCC25922 (wild-type) • Clostridium difficile ATCC9689 (wild-type)
(§2) Both series issued from the SAR study were evaluated for their antibacterial activity on a panel of characterized strains obtained from the French National Reference Centers for Staphylococci (Lyon, Pr. Fréderique Laurent) and for Enterococci (Caen, Pr. Vincent Cattoir), respectively. As shown in the following tables, both series contain very active compounds on multi-resistant Gram-positive bacteria (Minimal Inhibitory Concentrations lower than comparator antibiotic ampicillin). Furthermore, a very important antibacterial effect has been shown too on a strain of Clostridium difficile, a Gram-positive, spore-forming, bacillus responsible for post-antibiotic diarrhoae.
(§3) The antibacterial activity of test compounds was evaluated on a selected panel of Gram-positive (4 Staphylococcus aureus, 4 Staphylococcus epidermidis, 3 Enterococcus faecalis, 3 Enterococcus faecium, 1 Clostridium difficile) and Gram-negative strains (1 Escherichia coli, 1 Klebsiella pneumoniae, 1 Pseudomonas aeruginosa, 1 Acinetacter baumannii) with known features of antibiotic resistance (from wild-type susceptibility to multi-drug resistance). The Minimal Inhibitory Concentration (MIC) of test compounds was determined in duplicate by the microdilution method in 96-well microplates with a final volume of 100 μL per well and Mueller-Hinton broth as the growth medium, as recommended by the CLSI (Clinical and Laboratory Standards Institute, document Mo7-A10, USA).
(In general: Dilution methods test growth across graded concentrations, often in twofold steps.)

For the next assay, the system named is E. faecium AUS0004. Nature of the assay: MIC by microdilution, E. faecium AUS0004. The following applies: E. faecium AUS0004 (VanB positive, glycopeptide resistant), in duplicate. Format: cell-based, Enterococcus faecium. Here is the method:
as §1, §2, §3

Another assay has as its system E. faecium BM4147. Kind of assay: MIC by microdilution, E. faecium BM4147. Details: unit not given here. Format: cell-based, Enterococcus faecium. The settings on record: E. faecium BM4147 (VanA positive, glycopeptide resistant), in duplicate. The method, then:
as §1, §2, §3

Assay [1] has as its system S. epidermidis ST20150446. Nature of the assay: MIC by microdilution, S. epidermidis ST20150446. In kind it is cell-based, Staphylococcus epidermidis. The settings on record: S. epidermidis ST20150446 (MecA positive, glycopeptide resistant), in duplicate. Here is the method:
as §1, §2, §3

A further assay deals with S. aureus ATCC700699. Kind of assay: MIC by microdilution, S. aureus ATCC700699. Format: cell-based, Staphylococcus aureus. The following applies: S. aureus ATCC700699 (MecA positive, glycopeptide resistant), in duplicate. Details: unit not given here. The method, then: as §1, §2, §3
For the next assay, the system named is E. faecalis JH2-2. Kind of assay: MIC by microdilution, E. faecalis JH2-2. The settings on record: E. faecalis JH2-2 (wild-type), in duplicate. Details: unit not given here. In kind it is cell-based, Enterococcus faecalis. Here is the method: as §1, §2, §3
Assay [2] concerns panel of Gram-positive and Gram-negative strains. Kind of assay: Antibacterial profile on the selected panel of strains. In kind it is cell-based. The settings on record: summary of Tables 1-12. The method, then:
as §1, §2, §3

The next assay concerns E. faecalis UCN41. Kind of assay: MIC by microdilution, E. faecalis UCN41. Format: cell-based, Enterococcus faecalis. Details: unit not given here. The following applies: E. faecalis UCN41 (VanA positive, glycopeptide resistant), in duplicate. The method, then: as §1, §2, §3
In another assay the test system is S. epidermidis ATCC14990. Kind of assay: MIC by microdilution, S. epidermidis ATCC14990. In kind it is cell-based, Staphylococcus epidermidis. The settings on record: S. epidermidis ATCC14990 (MecA negative, wild-type), in duplicate. Here is the method:
as §1, §2, §3

In another assay the test system is E. faecalis V583. Nature of the assay: MIC by microdilution, E. faecalis V583. In kind it is cell-based, Enterococcus faecalis. The following applies: E. faecalis V583 (VanB positive, glycopeptide resistant), in duplicate. The method, then: as §1, §2, §3
In another assay the test system is E. faecium ATCC19434T. Nature of the assay: MIC by microdilution, E. faecium ATCC19434T. Format: cell-based, Enterococcus faecium. Details: unit not given here. The following applies: E. faecium ATCC19434T (wild-type), in duplicate. The method, then:
as §1, §2, §3

In a further assay the test system is E. coli ATCC25922. Nature of the assay: MIC by microdilution, E. coli ATCC25922. Format: cell-based, Escherichia coli. The settings on record: E. coli ATCC25922 (wild-type), in duplicate. The method, then: as §1, §2, §3
The subject of assay [3] is S. epidermidis ST20140436. Nature of the assay: MIC by microdilution, S. epidermidis ST20140436. Format: cell-based, Staphylococcus epidermidis. The settings on record: S. epidermidis ST20140436 (MecA positive, glycopeptide resistant), in duplicate. The method, then:
as §1, §2, §3

Another assay relates to S. epidermidis ATCC35984. Nature of the assay: MIC by microdilution, S. epidermidis ATCC35984. The settings on record: S. epidermidis ATCC35984 (MecA positive), in duplicate. In kind it is cell-based, Staphylococcus epidermidis. The method, then: as §1, §2, §3
Assay [4] deals with Clostridium difficile ATCC700057. Kind of assay: MIC by microdilution, Clostridium difficile. Format: cell-based. The settings on record: strain ATCC70057 [sic] (Tables 1-2) / ATCC700057 (Tables 3-10), in duplicate.
For another assay, the system named is S. aureus ATCC25923. Kind of assay: MIC by microdilution, S. aureus ATCC25923. Format: cell-based, Staphylococcus aureus. The settings on record: S. aureus ATCC25923 (MecA negative, wild-type), Mueller-Hinton broth, in duplicate. The method, then: as §1, §2, §3
The subject of another assay is S. aureus ATCC29213. Kind of assay: MIC by microdilution, S. aureus ATCC29213. Format: cell-based, Staphylococcus aureus. The following applies: S. aureus ATCC29213 (MecA negative, wild-type), Mueller-Hinton broth, in duplicate. Here is the method: as §1, §2, §3

Values joined by “and” are separate entries in the source; they are usually repeats but may differ in a detail not shown here. Equal values may be shown once.

`CC[P+](CC)(CC)[Au-][c]1nn[nH]c1-c1cccc(C(=O)NC(C(=O)NC2C(=O)N3C2SC(C)(C)C3C(=O)O)c2ccccc2)c1` (stereo not drawn) [TMB12]: the “Minimal Inhibitory Concentration (MIC)” value with S. aureus ST20131365 was 0.5; with E. faecium AUS0004 it was 0.5; with E. faecium BM4147, 1; in [1] it was at most 0.06; in the assay on S. aureus ATCC700699, 0.125 and 0.25; with E. faecalis JH2-2, 0.5. The “Minimal Inhibitory Concentration (MIC)” value was 0.5 and 1 in the assay on E. faecalis UCN41; at most 0.06 in the assay with S. epidermidis ATCC14990; 1 in the assay with E. faecalis V583; 0.5 in the assay with E. faecium ATCC19434T; over 8 in the assay on E. coli ATCC25922; at most 0.06 in assay [3]. Also, the “Minimal Inhibitory Concentration (MIC)” value (with S. epidermidis ATCC35984; in assay [4]) was at most 0.06 in each case. Moreover, in [2], the “antimicrobial / antibacterial activity (in words)” value is “have antimicrobial activity”.
For `CC[P+](CC)(CC)[Au-][c]1nn[nH]c1-c1cccc(C(=O)NC(C(=O)O)c2ccccc2)c1` (stereo not drawn) [TMB20], the “Minimal Inhibitory Concentration (MIC)” value in the assay on S. aureus ST20131365 is 0.125; in the assay on E. faecium AUS0004, 0.25; with E. faecium BM4147, 0.25 and 0.5; in the assay with S. aureus ATCC25923 it was 0.125; with S. aureus ATCC700699 it was 0.125; in the assay on E. faecalis JH2-2, 0.25. Also, the “Minimal Inhibitory Concentration (MIC)” value with E. faecalis UCN41 was 0.25; in the assay on S. epidermidis ATCC14990, at most 0.06; in the assay with E. faecalis V583, 0.25 and 0.5; with E. faecium ATCC19434T, 0.25; with E. coli ATCC25922 it was over 8; in assay [3], at most 0.06. The “Minimal Inhibitory Concentration (MIC)” value (in the assay with S. epidermidis ATCC35984; in assay [4]) was at most 0.06 each time. The “antimicrobial / antibacterial activity (in words)” value in assay [2] was “have antimicrobial activity”.
For `CC[P+](CC)(CC)[Au-][c]1nn[nH]c1CCC(=O)NC(C(=O)O)c1ccccc1` (stereo not drawn) [TMB21], the “Minimal Inhibitory Concentration (MIC)” value was 0.125 with S. aureus ST20131365; 0.25 in the assay with E. faecium AUS0004; 0.25 and 0.5 in the assay with E. faecium BM4147; at most 0.06 in [1]; 0.125 in the assay with S. aureus ATCC700699; 0.25 with E. faecalis JH2-2. Besides, the “Minimal Inhibitory Concentration (MIC)” value with E. faecalis UCN41 is 0.25; in the assay on S. epidermidis ATCC14990 it was at most 0.06; in the assay with E. faecalis V583, 0.25 and 0.5; in the assay on E. faecium ATCC19434T it was 0.25; in the assay with E. coli ATCC25922 it was over 8; in [3], at most 0.06. Moreover, the “Minimal Inhibitory Concentration (MIC)” value (with S. epidermidis ATCC35984; in [4]) was at most 0.06 in each case. Further, in assay [2], the “antimicrobial / antibacterial activity (in words)” value was “have antimicrobial activity”.
Take `CC[P+](CC)(CC)[Au-][c]1nn[nH]c1CN1CCOCC1` [TMB32]: the “Minimal Inhibitory Concentration (MIC)” value with S. aureus ST20131365 is 0.125; in the assay on E. faecium AUS0004 it was 0.25; in the assay with E. faecium BM4147, 0.25; in assay [1] it was 0.125 and 0.25; in the assay on S. aureus ATCC700699, 0.125 and 0.25; with E. faecalis JH2-2, 0.125. The “Minimal Inhibitory Concentration (MIC)” value is given as 0.25 in the assay on E. faecalis UCN41; at most 0.06 in the assay with S. epidermidis ATCC14990; 0.25 in the assay on E. faecalis V583; 0.25 with E. faecium ATCC19434T; over 8 in the assay with E. coli ATCC25922; at most 0.06 in the assay with S. epidermidis ATCC35984. Besides, the “Minimal Inhibitory Concentration (MIC)” value in assay [4] is reported as at most 0.06. In addition, the “antimicrobial / antibacterial activity (in words)” value in assay [2] is given as “have antimicrobial activity”.
`CC[P+](CC)(CC)[Au-][c]1nn[nH]c1CCS(N)(=O)=O` [TMB36]: the “Minimal Inhibitory Concentration (MIC)” value is 0.25 in the assay with E. faecium AUS0004; 0.5 in the assay with E. faecium BM4147; at most 0.06 in assay [1]; at most 0.06 with S. aureus ATCC25923; 0.125 with S. aureus ATCC700699; 0.25 in the assay with E. faecalis JH2-2. For the same compound, the “Minimal Inhibitory Concentration (MIC)” value with E. faecalis UCN41 was 0.25; with S. epidermidis ATCC14990, at most 0.06; with E. faecalis V583 it was 0.5; in the assay on E. faecium ATCC19434T, 0.25; with E. coli ATCC25922 it was over 8; in assay [3], at most 0.06. The “Minimal Inhibitory Concentration (MIC)” value (in the assay on S. epidermidis ATCC35984; in assay [4]) was at most 0.06 in each case. Further, the “antimicrobial / antibacterial activity (in words)” value in assay [2] is “have antimicrobial activity”.
With `CC[P+](CC)(CC)[Au-][c]1nn[nH]c1-c1ccc(C(=O)O)cn1` [TMB39], the “Minimal Inhibitory Concentration (MIC)” value in the assay on S. aureus ST20131365 is at most 0.06; in the assay on E. faecium AUS0004, 0.5; in the assay with E. faecium BM4147, 0.125; in assay [1] it was at most 0.06; with S. aureus ATCC25923, at most 0.06; in the assay with S. aureus ATCC29213 it was at most 0.06. Further, the “Minimal Inhibitory Concentration (MIC)” value with S. aureus ATCC700699 was at most 0.06; in the assay on E. faecalis JH2-2, 0.25; with E. faecalis UCN41, 0.25; in the assay with S. epidermidis ATCC14990 it was at most 0.06; in the assay on E. faecalis V583 it was 0.25; in the assay on E. faecium ATCC19434T, 0.125. In addition, the “Minimal Inhibitory Concentration (MIC)” value in [3] was at most 0.06; with S. epidermidis ATCC35984, at most 0.06; in assay [4], 0.25 and 0.5. Also, the “antimicrobial / antibacterial activity (in words)” value in assay [2] was “have antimicrobial activity”.
